Reference: patent US8211929B2, “Pyrimidine derivatives as kinase modulators and method of use” (Exelixis, Inc., priority 2004, dated 2012)
pIC50: −log10 of the molar value.

Tests used:
[1] = biological target: T1, (Homo sapiens, UniProt P08069); assay: IGF1R kinase assay (LCCA), IGF 0P; assay type: biochemical; conditions: IGF1R kinase LCCA assay
T1 construct: human IGF1R kinase domain residues M954-C1367; made in house; host or cells: baculovirus expression (insect cells)
Summary of the method: (§1)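 Read-out is percent ATP remaining, detected by luciferase-luciferin luminescence after a 2 h ambient reaction. Reaction contained 4 nM IGF1R kinase domain (residues M954-C1367, baculovirus-made), 3 μM ATP (near KM), 4 μM poly EY, pH 7.5 with Mg2+/Mn2+. Ten inhibitor concentrations; IC50 by Hill-type curve fit.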

IGF 3P = biological target: T2, IGF 3P (Homo sapiens, UniProt P08069); assay: IGF1R kinase assay (LCCA), IGF 3P; assay type: biochemical; conditions: IGF1R kinase LCCA assay
T2 construct: human IGF1R kinase domain residues M954-C1367; made in house; host or cells: baculovirus expression (insect cells)
T2 sequence (P08069 954-1367): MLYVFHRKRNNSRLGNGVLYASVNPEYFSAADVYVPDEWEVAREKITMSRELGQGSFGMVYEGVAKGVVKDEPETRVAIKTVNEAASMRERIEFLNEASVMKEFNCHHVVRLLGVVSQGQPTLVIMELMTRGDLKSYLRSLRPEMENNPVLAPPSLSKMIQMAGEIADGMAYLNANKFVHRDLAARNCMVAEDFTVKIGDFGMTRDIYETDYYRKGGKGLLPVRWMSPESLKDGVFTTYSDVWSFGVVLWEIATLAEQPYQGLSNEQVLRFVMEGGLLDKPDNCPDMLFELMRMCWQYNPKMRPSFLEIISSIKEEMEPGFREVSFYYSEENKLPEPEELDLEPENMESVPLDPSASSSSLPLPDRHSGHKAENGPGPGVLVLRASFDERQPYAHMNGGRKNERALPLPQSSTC
Summary of the method: as §1

T1 sequence (P08069 954-1367): as above

SMILES	pIC50 [1]	pIC50 (IGF 3P)	pIC50 ([1]; IGF 0P)	pIC50 (IGF 3P; IGF 3P)
Brc1cnc(Nc2ccc(Oc3ccccc3)cc2)nc1Nc1cc(C2CC2)[nH]n1 [Example 321]	< 5.30	< 5.30	–	–
Brc1cnc(Nc2ccc(-c3ccccc3)cc2)nc1Nc1cc(C2CC2)[nH]n1 [Example 322]	< 5.30	< 5.30	–	–
Brc1cnc(NCc2cc(-c3ccccc3)no2)nc1Nc1cc(-c2ccccc2)n[nH]1 [Example 323]	< 5.30	< 5.30	–	–
CC(C)(C)OC(=O)N1CCC(Nc2ncc(Br)c(Nc3cc(C4CC4)[nH]n3)n2)CC1 [Example 326]	< 5.30	< 5.30	–	–
Brc1cnc(NCCC(c2ccccc2)c2ccccc2)nc1Nc1cc(C2CC2)[nH]n1 [Example 328]	< 5.30	< 5.30	–	–
Brc1cnc(NCC(c2ccccc2)c2ccccc2)nc1Nc1cc(C2CC2)[nH]n1 [Example 329]	< 5.30	< 5.30	–	–
NC(=O)c1c[nH]nc1Nc1nc(Nc2ccccc2Cl)ncc1Br [Example 332]	< 5.30	< 5.30	–	–
Brc1cnc(NC(Cc2ccccc2)c2ccccc2)nc1Nc1cc(C2CC2)[nH]n1 (stereo not drawn) [Example 333]	< 5.30	< 5.30	–	–
Brc1cnc(Nc2ccccc2N2CCCCC2)nc1Nc1cc(C2CC2)[nH]n1 [Example 334]	< 5.30	< 5.30	–	–
Nc1ncnc2c1c(-c1ccc(NC(=O)C3(C(=O)Nc4ccc(F)cc4)CC3)cc1)cn2C1CC(CN2CCCC2)C1 (stereo not drawn) [Example 343]	5.30 to 6.30	5.30 to 6.30	–	–
NCCCCn1cc(-c2cccc(OCc3ccccc3)c2)c2c(N)ncnc21 [Example 344]	< 5.30	5.30 to 6.30	–	–
CC(=O)NCC=CCn1cc(-c2cccc(OCc3ccccc3)c2)c2c(N)ncnc21 [Example 345]	–	–	< 5.30	5.30 to 6.30
CC(=O)NCC1CC(n2cc(-c3cccc(OCc4ccccc4)c3)c3c(NC(C)=O)ncnc32)C1 (stereo not drawn) [Example 346]	< 5.30	5.30 to 6.30	–	–
Nc1ncnc2c1c(-c1ccc(NC(=O)C3(C(=O)Nc4ccc(F)cc4)CC3)cc1)cn2CC1CC2CNCC2C1 (stereo not drawn) [Example 347]	< 5.30	< 5.30	–	–
Nc1ncnc2c1c(-c1cccc(OCc3ccccc3)c1)cn2C1CNC1 [Example 348]	< 5.30	5.30 to 6.30	–	–
CC(=O)N1CCC(n2cc(-c3cccc(OCc4ccccc4)c3)c3c(N)ncnc32)CC1 [Example 349]	< 5.30	< 5.30	–	–
Nc1ncnc2c1c(-c1cccc(OCc3ccccc3)c1)cn2C1CCCCC1 [Example 350]	< 5.30	5.30 to 6.30	–	–
Nc1ncnc2c1c(-c1cccc(Oc3ccccc3)c1)cn2C1CCCC1 [Example 354]	< 5.30	< 5.30	–	–
CC(=O)NCC#CCn1cc(-c2cccc(OCc3ccccc3)c2)c2c(N)ncnc21 [Example 355]	< 5.30	< 5.30	–	–
Nc1ncnc2c1c(-c1cccc(OCc3ccccc3)c1)cn2CC1CC2CN(C(=O)OCc3ccccc3)CC2C1 (stereo not drawn) [Example 356]	< 5.30	< 5.30	–	–
Nc1ncnc2c1c(-c1ccc(NC(=O)C3(C(=O)Nc4ccc(F)cc4)CC3)cc1)cn2CC1CC2CN(C(=O)OCc3ccccc3)CC2C1 (stereo not drawn) [Example 357]	< 5.30	< 5.30	–	–
Nc1ncnc2c1c(-c1cccc(OCc3ccccc3)c1)cn2CC1CC2CNCC2C1 (stereo not drawn) [Example 358]	< 5.30	< 5.30	–	–
CCN(CC)CCCNc1cc(Nc2cc(C(C)C)[nH]n2)nc(NCc2cc(-c3ccccc3)no2)n1 [Example 495]	6.30 to 7.30	> 7.30	–	–
CC(C)c1cc(Nc2cc(N3CCOCC3)nc(NCc3cc(-c4ccccc4)no3)n2)n[nH]1 [Example 496]	6.30 to 7.30	> 7.30	–	–
CC(C)c1cc(Nc2cc(N3CCN(C)CC3)nc(NCc3cc(-c4ccccc4)no3)n2)n[nH]1 [Example 497]	6.30 to 7.30	> 7.30	–	–
c1ccc(-c2cc(CNc3nc(Nc4cc(C5CC5)[nH]n4)cc(OCCN4CCOCC4)n3)on2)cc1 [Example 501]	6.30 to 7.30	> 7.30	–	–
CC(C)c1cc(Nc2cc(OCCN(C)C)nc(NCc3cc(-c4ccccc4)no3)n2)n[nH]1 [Example 518]	6.30 to 7.30	> 7.30	–	–
Brc1cnc(Nc2ccc(N3CCOCC3)cc2)nc1Nc1ccc2c(c1)CNCC2 [Example 534]	5.30 to 6.30	> 7.30	–	–
CCN(CC)CCNC(=O)CCc1ccc(Nc2ncc(Br)c(Nc3ccccc3)n2)cc1 [Example 541]	6.30 to 7.30	> 7.30	–	–
CC(C)c1cc(CNc2nc(Cl)cc(Nc3cc(C(C)C)[nH]n3)n2)on1 [Example 544]	5.30 to 6.30	> 7.30	–	–

The remaining lines, values ahead:

pIC50 [1]	pIC50 (IGF 3P)	pIC50 ([1]; IGF 0P)	pIC50 (IGF 3P; IGF 3P)	SMILES
< 5.30	< 5.30	–	–	Clc1ccc(-c2ccc(CNc3ncc(Br)c(Nc4cc(C5CC5)n[nH]4)n3)s2)cc1 [Example 324]
< 5.30	< 5.30	–	–	Clc1cc(Nc2ncc(Br)c(Nc3cc(C4CC4)n[nH]3)n2)cc(Cl)c1Cl [Example 325]
< 5.30	< 5.30	–	–	Nc1ccc(Nc2nc(Nc3cc(C4CC4)n[nH]3)ncc2Br)cc1 [Example 327]
< 5.30	< 5.30	–	–	Brc1cnc(Nc2cccc(Oc3ccccc3)c2)nc1Nc1cc(C2CC2)n[nH]1 [Example 330]
< 5.30	< 5.30	–	–	O=[N+]([O-])c1cnc(Nc2ccc(Cl)cc2Cl)nc1Nc1cc(C2CC2)n[nH]1 [Example 331]
< 5.30	< 5.30	–	–	O=C(c1ccccc1)c1ccccc1Nc1ncc(Br)c(Nc2cc(C3CC3)n[nH]2)n1 [Example 335]
6.30 to 7.30	6.30 to 7.30	–	–	Cc1cc(Nc2cc(C3CC3)[nH]n2)nc(NCc2cc(-c3ccccn3)no2)n1 [Example 498]
6.30 to 7.30	> 7.30	–	–	c1ccc(-c2cc(CNc3nc(Nc4cc(C5CC5)[nH]n4)cc(N4CCNCC4)n3)on2)cc1 [Example 499]
6.30 to 7.30	> 7.30	–	–	Cc1cc(Nc2cc(C3CC3)[nH]n2)nc(NCc2cc(-c3ccc(F)cc3)no2)n1 [Example 500]
6.30 to 7.30	> 7.30	–	–	CN1CCN(CCNc2cc(Nc3cc(C4CC4)[nH]n3)nc(NCc3cc(-c4ccccc4)no3)n2)CC1 [Example 509]
6.30 to 7.30	6.30 to 7.30	–	–	O=C(c1cc(Nc2cc(C3CC3)[nH]n2)nc(NCc2cc(-c3ccccc3)no2)n1)N1CCOCC1 [Example 512]
6.30 to 7.30	> 7.30	–	–	c1ccc(-c2cc(CNc3nc(NCCN4CCOCC4)cc(Nc4cc(C5CC5)[nH]n4)n3)on2)cc1 [Example 513]
–	–	6.30 to 7.30	> 7.30	c1ccc(-c2cc(CNc3nc(Nc4cc(C5CC5)n[nH]4)cc(OCCN4CCCC4)n3)on2)cc1 [Example 514]
6.30 to 7.30	> 7.30	–	–	CN1CCC(Oc2cc(Nc3cc(C4CC4)[nH]n3)nc(NCc3cc(-c4ccccc4)no3)n2)C1 (stereo not drawn) [Example 515]
6.30 to 7.30	> 7.30	–	–	c1ccc(-c2cc(CNc3nc(NCCN4CCCCC4)cc(Nc4cc(C5CC5)[nH]n4)n3)on2)cc1 [Example 516]
6.30 to 7.30	> 7.30	–	–	O=C(NCCN1CCCC1)c1cc(Nc2cc(C3CC3)[nH]n2)nc(NCc2cc(-c3ccccc3)no2)n1 [Example 521]
6.30 to 7.30	> 7.30	–	–	CN1CCN(C(=O)c2cc(Nc3cc(C4CC4)[nH]n3)nc(NCc3cc(-c4ccccc4)no3)n2)CC1 [Example 522]

pIC50 [1]	pIC50 (IGF 3P)	pIC50 ([1]; IGF 0P)	pIC50 (IGF 3P; IGF 3P)	SMILES
6.30 to 7.30	6.30 to 7.30	–	–	Cc1cc(Nc2cc(C3CC3)[nH]n2)nc(NCc2cc(-c3ccccc3Br)no2)n1 [Example 525]
5.30 to 6.30	> 7.30	–	–	Cc1cc(Nc2cc(C(C)C)[nH]n2)nc(NCc2cc(C(C)C)no2)n1 [Example 526]
6.30 to 7.30	6.30 to 7.30	–	–	CN1CCN(CCNC(=O)c2cc(Nc3cc(C4CC4)[nH]n3)nc(NCc3cc(-c4ccccc4)no3)n2)CC1 [Example 527]
6.30 to 7.30	6.30 to 7.30	–	–	Cc1cc(Nc2cc(C)nc(NCc3cc(-c4ccccc4)no3)n2)[nH]n1 [Example 528]
6.30 to 7.30	6.30 to 7.30	–	–	CCN(CC)CCCNC(=O)c1cc(Nc2cc(C3CC3)[nH]n2)nc(NCc2cc(-c3ccccc3)no2)n1 [Example 529]
6.30 to 7.30	> 7.30	–	–	CCN(CC)CCNC(=O)c1cc(Nc2cc(C3CC3)[nH]n2)nc(NCc2cc(-c3ccccc3)no2)n1 [Example 530]
6.30 to 7.30	> 7.30	–	–	O=C(NCCN1CCCCC1)c1cc(Nc2cc(C3CC3)[nH]n2)nc(NCc2cc(-c3ccccc3)no2)n1 [Example 531]
6.30 to 7.30	6.30 to 7.30	–	–	O=C(NCCN1CCOCC1)c1cc(Nc2cc(C3CC3)[nH]n2)nc(NCc2cc(-c3ccccc3)no2)n1 [Example 533]
6.30 to 7.30	6.30 to 7.30	–	–	Cc1cc(Nc2cc(C(C)C)[nH]n2)nc(NCc2cc(-c3cccc(Cl)c3)no2)n1 [Example 535]
5.30 to 6.30	5.30 to 6.30	–	–	Cc1cc(Nc2cc(C3CC3)[nH]n2)nc(NCc2cnc[nH]2)n1 [Example 536]
5.30 to 6.30	5.30 to 6.30	–	–	COC(=O)C1CCc2cc(Nc3nc(C)cc(Nc4cc(C5CC5)n[nH]4)n3)ccc2N1 (stereo not drawn) [Example 537]
6.30 to 7.30	6.30 to 7.30	–	–	Cc1cc(Nc2cc(C3CC3)[nH]n2)nc(NCc2cc(-c3cccc(Cl)c3)no2)n1 [Example 538]
5.30 to 6.30	5.30 to 6.30	–	–	CNCCc1ccc(Nc2nc(C)cc(Nc3cc(C4CC4)n[nH]3)n2)cc1 [Example 540]
6.30 to 7.30	6.30 to 7.30	–	–	Cc1cc(Nc2cc(C3CC3)[nH]n2)nc(NCc2cc(-c3cccc(Br)c3)no2)n1 [Example 542]
5.30 to 6.30	6.30 to 7.30	–	–	Cc1cc(Nc2cc(C3CC3)n[nH]2)nc(Nc2ccc3c(c2)CNCC3)n1 [Example 545]
5.30 to 6.30	6.30 to 7.30	–	–	Cc1cc(Nc2cc(C3CC3)n[nH]2)nc(Nc2ccc3c(c2)CC(N)C3)n1 (stereo not drawn) [Example 546]
